For one experiment, the target named is cIAP1 BIR3 Protein (Homo sapiens (Human), UniProt Q13490). Put plainly: Fluorescence polarization-based competitive binding assay, cIAP-1 BIR3. Conditions: 10 nM cIAP-1 BIR3 protein, 2 nM SM5F tracer. Here is the method: (§1) An in vitro fluorescence polarization (FP) based binding assay was used to test the binding ability of the compounds of the present invention to certain IAP proteins (Nikolovska-Coleska et al., Anal. Biochem. 332:261-73 (2004)).
(§2) Human cIAP-1 BIR3-only (residues 253-363) and cIAP2 BIR3-only (residues 238-349) were cloned into pHis-TEV vector, produced and purified using the same method as for the XIAP BIR3 protein.
(§3) In competitive binding experiments, 10 nM of cIAP-1 BIR3 protein and 2 nM of SM5F tracer were used. […] In competitive binding experiments, 25 nM of cIAP-2 BIR3 protein and 2 nM of SM5F tracer were used.
(§4) For each competitive binding experiment, polarization values were measured after 2-3 hours incubation using an Ultra plate reader. The IC50 value, the inhibitor concentration at which 50% of bound tracer was displaced, was determined from the plot using nonlinear least-squares analysis. Curve fitting was performed using the PRISM software (GraphPad Software, Inc., San Diego, Calif.). Ki value for each compound was calculated based upon the IC50 value using a previously reported algorithm and its associated computer program (Nikolovska-Coleska et al., Anal. Biochem. 332:261-73 (2004)).
In general terms: Fluorescence polarisation rises when a labelled molecule tumbles more slowly, as on binding a larger partner.

The target of experiment [1] is XIAP Linker-BIR2-BIR3 Protein (Homo sapiens (Human), UniProt P98170). Kind of experiment: Fluorescence polarization-based binding assay, XIAP Linker-BIR2-BIR3. Conditions: 3 nM XIAP protein (residues 120-356), 1 nM Smac2-F. From the text:
An in vitro fluorescence polarization (FP) based binding assay was used to test the binding ability of the compounds of the present invention to XIAP linker-BIR2-BIR3 protein (Nikolovska-Coleska et al., Anal. Biochem. 374:87-98 (2008)).
For this assay a bivalent Smac peptido-mimetic labeled with a fluorescence tag (FAM), termed Smac2-F, was employed. […] The recombinant XIAP Linker-BIR2-BIR3 protein of human XIAP (residues 120-356) fused to His-tag was stable and soluble, and was used for the FP-based binding assay.
For the competitive binding experiments, a tested compound was incubated with 3 nM of XIAP protein (residues 120-356) and 1 nM of Smac2-F in the assay buffer (100 mM potassium phosphate, pH 7.5; 100 μg/ml bovine gamma globulin; 0.02% sodium azide) in black, round-bottom plates. For each experiment, the controls include XIAP and Smac2-F peptide (equivalent to 0% inhibition), and Smac-2F only (equal to 100% of inhibition). The polarization values are measured after 2 hours incubation, using the Ultra plate reader. The IC50 value, the inhibitor concentration at which 50% of bound tracer was displaced, is determined from the plot using nonlinear least-squares analysis. Curve fitting is performed using GraphPad Prism® software.

Experiment [2] relates to MDA-MB-231 human breast cancer cell line. Put plainly: Cancer cell growth inhibition, WST-8. Conditions: MDA-MB-231, 96 h, 4 days. The experiment is classed as cell-based. Here is the method:
(§5) The effect of the compounds of the present invention on the growth of various cancer cell lines was tested. Cells were seeded in 96-well flat bottom cell culture plates at a density of 3000 cells/well with a tested compound and incubated at 37° C. in an atmosphere of 95% air and 5% CO2 for 4 days. The rate of cell growth inhibition after treatment with different concentrations of the compound was determined using a WST-8 kit (2-(2-methoxy-4-nitrophenyl)-3-(4-nitrophenyl)-5-(2,4 disulfophenyl)-2H-tetrazolium monosodium salt; Dojindo Molecular Technologies, Inc., Gaithersburg, Md.). WST-8 was added at a final concentration of 10% to each well, and then the plates were incubated at 37° C. for 2-3 hrs. The absorbance of the samples was measured at 450 nm using a ULTRA Tecan Reader (Molecular Device). The concentration of the tested compound that inhibited cell growth by 50% (IC50) was calculated by comparing absorbance in untreated cells and the cells treated with the tested compound.
(In general: Tetrazolium assays rely on reduction of a dye to a coloured formazan, in cell work by metabolically active cells.)

The test system of experiment [3] is SK-OV-3 ovarian cancer cell line. Put plainly: Cancer cell growth inhibition, WST-8. It is filed as cell-based. Conditions: Homo sapiens, SK-OV-3, 96 h, 4 days. Here is the method: as §5
A further experiment has as its target cIAP2 BIR3 Protein (Homo sapiens (Human), UniProt Q13489). Put plainly: Fluorescence polarization-based competitive binding assay, cIAP-2 BIR3. Conditions: 25 nM cIAP-2 BIR3 protein, 2 nM SM5F tracer. Here is the method: as §1, §2, §3, §4
For experiment [4], the system named is breast cancer MDA-MB-231 cell line. Put plainly: Induction of cell death, trypan blue exclusion assay. It is filed as cell-based, human. Conditions: MDA-MB-231, 48 hours, FIG. 1. As for the experimental part:
(§6) The ability of SM-1258 and SM-1267 to induce cell death was tested in the breast cancer MDA-MB-231 (FIG. 1) and ovarian cancer SK-OV-3 (FIG. 2) cell lines. Cells were treated with SM-1258 and SM-1267 for 48 hours and cell viability was determined using the trypan blue exclusion assay.

For experiment [5], the system named is ovarian cancer SK-OV-3 cell line. The experiment is described as above. The experiment is classed as cell-based, human. Conditions: SK-OV-3, 48 hours, FIG. 2. As for the experimental part: as §6
Another experiment concerns the target XIAP BIR3 (Homo sapiens (Human), UniProt P98170). Conditions: cited from earlier work.

Some results are limits rather than exact numbers.

By IC50 is commonly meant the point on the concentration scale where inhibition reaches its midpoint. What is called Kd is the free concentration of one partner at which half of the binding sites on the other are occupied at equilibrium, for simple one-to-one binding.

Chain of cIAP2 BIR3 Protein (Q13489 238-349): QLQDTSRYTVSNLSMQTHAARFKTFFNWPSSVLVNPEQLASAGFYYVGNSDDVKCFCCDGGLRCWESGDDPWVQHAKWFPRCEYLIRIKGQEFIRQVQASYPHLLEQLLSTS
Chain of XIAP Linker-BIR2-BIR3 Protein (P98170 120-356): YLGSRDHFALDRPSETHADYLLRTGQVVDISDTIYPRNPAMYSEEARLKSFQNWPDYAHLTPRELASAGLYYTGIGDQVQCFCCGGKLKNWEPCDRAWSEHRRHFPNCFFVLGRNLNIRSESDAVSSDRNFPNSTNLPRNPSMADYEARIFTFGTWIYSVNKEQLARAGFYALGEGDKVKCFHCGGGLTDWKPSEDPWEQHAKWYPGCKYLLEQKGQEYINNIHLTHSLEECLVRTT
Chain of cIAP1 BIR3 Protein (Q13490 253-363): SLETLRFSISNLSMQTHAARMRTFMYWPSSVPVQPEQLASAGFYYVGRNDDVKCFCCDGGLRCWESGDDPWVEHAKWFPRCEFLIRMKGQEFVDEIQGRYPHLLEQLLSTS
Chain of XIAP BIR3 (P98170 241-356): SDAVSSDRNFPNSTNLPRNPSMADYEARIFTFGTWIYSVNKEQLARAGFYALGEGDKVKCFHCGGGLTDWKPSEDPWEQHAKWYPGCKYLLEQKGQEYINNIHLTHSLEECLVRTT

As for `CN[C@@H](C)C(=O)N[C@H]1CN(C(=O)CCCCCCCCCCC(=O)N2CC[C@H]3CC[C@@H](c4nc5cccc(-c6ccccc6)c5[nH]4)N3C(=O)[C@@H](NC(=O)[C@H](C)NC)C2)CC[C@H]2CC[C@@H](c3nc4c(-c5ccccc5)cccc4[nH]3)N2C1=O` [SM-1258], the IC50 is less than 50 nM at cIAP1 BIR3 Protein, less than 10 nM in experiment [1], less than 10 nM in experiment [2] and less than 20 nM in experiment [3].
Regarding `CN[C@@H](C)C(=O)N[C@H]1CN(C(=O)CCCCOCCCCC(=O)N2CC[C@H]3CC[C@@H](c4nc5cccc(-c6ccccc6)c5[nH]4)N3C(=O)[C@@H](NC(=O)[C@H](C)NC)C2)CC[C@H]2CC[C@@H](c3nc4c(-c5ccccc5)cccc4[nH]3)N2C1=O` [SM-1259], the IC50 was less than 10 nM on cIAP1 BIR3 Protein, less than 20 nM at cIAP2 BIR3 Protein, less than 10 nM in experiment [1] and less than 10 nM in experiment [2].
Consider `CN[C@@H](C)C(=O)N[C@H]1CN(C(=O)CCCCC(=O)N2CC[C@H]3CC[C@@H](c4nc5cccc(-c6ccccc6)c5[nH]4)N3C(=O)[C@@H](NC(=O)[C@H](C)NC)C2)CC[C@H]2CC[C@@H](c3nc4c(-c5ccccc5)cccc4[nH]3)N2C1=O` [SM-1265], for which the IC50 is less than 10 nM at cIAP1 BIR3 Protein, less than 10 nM on cIAP2 BIR3 Protein, less than 50 nM in experiment [1] and less than 50 nM in experiment [2].
With `CN[C@@H](C)C(=O)N[C@H]1CN(C(=O)CCCCCCC(=O)N2CC[C@H]3CC[C@@H](c4nc5cccc(-c6ccccc6)c5[nH]4)N3C(=O)[C@@H](NC(=O)[C@H](C)NC)C2)CC[C@H]2CC[C@@H](c3nc4c(-c5ccccc5)cccc4[nH]3)N2C1=O` [SM-1266], the IC50 is less than 10 nM at cIAP1 BIR3 Protein, less than 20 nM on cIAP2 BIR3 Protein, less than 10 nM in experiment [1] and less than 10 nM in experiment [2].
For `CN[C@@H](C)C(=O)N[C@H]1CN(C(=O)CCCCCCCCC(=O)N2CC[C@H]3CC[C@@H](c4nc5cccc(-c6ccccc6)c5[nH]4)N3C(=O)[C@@H](NC(=O)[C@H](C)NC)C2)CC[C@H]2CC[C@@H](c3nc4c(-c5ccccc5)cccc4[nH]3)N2C1=O` [SM-1267], the IC50 on cIAP1 BIR3 Protein was less than 10 nM; on cIAP2 BIR3 Protein, less than 50 nM; in experiment [1], less than 10 nM; in experiment [2] it was less than 10 nM. The “induction of cell death” value in experiment [4] and in experiment [5] was “induced cell death” each time.

B1: mature Smac protein: second mitochondria-derived activator of caspases, mature polypeptide (protein, UniProt Q9NR28 22-239, looked up)
Diablo IAP-binding …: LCVPVVANFKKRCFSELIRPWHKTVTIGFGVTLCAVPIAQKSEPHSLSSEALMRRAVSLVTDSTSTFLSQTTYALIEAITEYTKAVYTLTSLYRQYTSLLGKMNSEEEDEVWQVIIGARAEMTSKHQEYLKLETTWMTAVGLSEMAAEAAYQTGADQASITARNHIQLVKLQVEEVHQLSRKAETKLAEAQIEELRQKTQEEGEERAESEQEAYLRED
Consider B1, for which, in the experiment with XIAP BIR3, the Kd is 420 nM.

Source of the values: patent US8815927B2, “Bivalent diazo bicyclic Smac mimetics and the uses thereof” (The Regents of the University of Michigan, priority 2009, dated 2014).
